Reference: PubChem BioAssay (NCI)
Several values for one entry are separate records, joined by “and”; a condition that tells them apart may be missing. Identical values can stand only once.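 Dose response: 5 concentrations. Exposure: 48 h. Format: 96-well plates. Endpoint: linear interpolation; highest concentration if not reached. At the GI50, growth is halved. The concentration for full growth arrest is given as TGI.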

Experiments:
Experiment in all cases: inhibition of tumour cell growth, NCI panel, 48 h
[1] = system: A498 renal
[2] = system: COLO 205 colon
[3] = system: HL-60(TB) leukemia
[4] = system: OVCAR-3 ovarian
[5] = system: SK-MEL-28 melanoma
[6] = system: SN12C renal
[7] = system: SNB-19 CNS
[8] = system: SW-620 colon
[9] = system: TK-10 renal
[10] = system: SF-539 CNS

`Oc1ccc(/C=N\Nc2ccccn2)c(O)c1` gave a GI50 [1] of 1.87 µM, a TGI [1] of 7.17 µM and a GI50 [2] of 5.83 µM. The TGI [2] was greater than 100 µM, the GI50 [3] was 0.243 µM and the TGI [3] was 0.783 µM. The GI50 [4] was 1.77 µM, the TGI [4] was greater than 100 µM and the GI50 [5] was 16 µM. For the same molecule, the TGI [5] was greater than 100 µM, the GI50 [6] was 2.48 µM and the TGI [6] was greater than 100 µM. For the same molecule, the GI50 [7] was 2.97 µM, the TGI [7] was greater than 100 µM and the GI50 [8] was 1.52 µM. For the same molecule, the TGI [8] was greater than 100 µM, the GI50 [9] was 8.41 µM and the TGI [9] was greater than 100 µM.
For `CCCCCCCCCCC/C(=N/O)c1ccc(O)c2ncccc12`, the TGI [2] was greater than 100 µM, the TGI [10] was 4.91 µM and the TGI [5] was greater than 100 µM. The TGI [7] was greater than 100 µM, the TGI [8] was greater than 100 µM and the TGI [9] was greater than 100 µM.
Work on `O=C1C(Cl)=C(Cl)C(=O)N1C1C2CC3CC(C2)CC1C3` (centres undefined) yielded a TGI [1] greater than 100 µM, a TGI [2] greater than 100 µM and a TGI [3] of 79.4 µM. For the same molecule, the TGI [10] was greater than 100 µM, the TGI [5] was greater than 100 µM and the TGI [6] was greater than 100 µM. For the same molecule, the TGI [7] was greater than 100 µM, the TGI [8] was greater than 100 µM and the TGI [9] was greater than 100 µM.
For `O=C1c2cccc3cc([N+](=O)[O-])cc(c23)C(=O)N1CCNCCNCCNCCN1C(=O)c2cccc3cc([N+](=O)[O-])cc(c23)C1=O`, the GI50 [1] was less than 0.001 µM, the TGI [1] was 0.227 µM and the TGI [4] was 0.343 µM and 0.94 µM. The TGI [10] was 0.304 µM and 0.357 µM, the TGI [5] was 0.338 µM and 0.279 µM and the GI50 [6] was 0.0367 µM. For the same molecule, the TGI [6] was 2.77 µM and 2.65 µM, the TGI [7] was 2.34 µM and 0.926 µM and the TGI [8] was 0.449 µM and 0.534 µM. For the same molecule, the TGI [9] was 0.321 µM.
Molecule `O=C1CCC(Cc2ccc(Cl)cc2Cl)C(=O)N1` (centres undefined) has a TGI [2] greater than 100 µM, a TGI [3] greater than 100 µM and a TGI [4] greater than 100 µM. It also gave a TGI [10] greater than 100 µM, a TGI [5] greater than 100 µM and a TGI [6] greater than 100 µM. The TGI [7] was greater than 100 µM, the TGI [8] was greater than 100 µM and the TGI [9] was greater than 100 µM.
`CC(C)NCCNC(=O)c1ccccc1Nc1c(Cl)cccc1Cl` was tested, and the TGI [2] was 24.9 µM, the TGI [3] was 24.8 µM and the TGI [4] was 26.6 µM. The TGI [10] was 30.2 µM, the TGI [5] was 28.1 µM and the TGI [6] was 26.8 µM. It also gave a TGI [7] of 30 µM, a TGI [8] of 30.4 µM and a TGI [9] of 24 µM.
`O=Cc1c(-c2cc(O)ccc2O)nc2sccn12` gave a GI50 [1] of 29.5 µM, a TGI [1] of 78.9 µM and a GI50 [2] of 32.3 µM. For the same molecule, the TGI [2] was greater than 100 µM, the GI50 [4] was 1.6 µM and the TGI [4] was 6.47 µM. The GI50 [10] was 20.3 µM, the TGI [10] was 52 µM and the GI50 [5] was 23.8 µM. The TGI [5] was 96.6 µM, the GI50 [6] was 12.8 µM and the TGI [6] was 34.5 µM. For the same molecule, the GI50 [7] was 42.6 µM, the TGI [7] was greater than 100 µM and the GI50 [8] was 25.3 µM. It also gave a TGI [8] greater than 100 µM, a GI50 [9] of 11 µM and a TGI [9] of 23.6 µM.
`C1CC[N-]CC1.C1CC[N-]CC1.C1CC[N-]CC1.C1CC[N-]CC1.[Cl][Rh][Cl]` showed a GI50 [1] of 15.6 µM, a TGI [1] of 55.2 µM and a GI50 [2] of 3.17 µM. For the same molecule, the TGI [2] was 9.34 µM, the GI50 [4] was 10.6 µM and the TGI [4] was 41.3 µM. The GI50 [10] was 5.15 µM, the TGI [10] was greater than 100 µM and the GI50 [5] was 3.36 µM. For the same molecule, the TGI [5] was 21.6 µM, the GI50 [6] was 1.4 µM and the TGI [6] was greater than 100 µM. The GI50 [7] was 4.75 µM, the TGI [7] was greater than 100 µM and the GI50 [8] was 6.12 µM. The TGI [8] was greater than 100 µM, the GI50 [9] was 23.6 µM and the TGI [9] was greater than 100 µM.
In the case of `[N-]=[N+]=NC(c1cn(C2CC(O)C(CO)O2)c(=O)[nH]c1=O)C(Br)I` (centres undefined), the TGI [2] is reported as greater than 100 µM, the TGI [3] is reported as greater than 100 µM and the TGI [4] is reported as greater than 100 µM. The TGI [10] was greater than 100 µM, the TGI [5] was greater than 100 µM and the TGI [6] was greater than 100 µM. It also gave a TGI [7] greater than 100 µM, a TGI [8] greater than 100 µM and a TGI [9] greater than 100 µM.
For `O=C1C(Cl)C(c2cccc(O)c2)N1n1cnc2ccccc2c1=O` (centres undefined), the TGI [2] was greater than 100 µM, the TGI [3] was greater than 100 µM and the TGI [4] was greater than 100 µM. The TGI [5] was greater than 100 µM, the TGI [6] was greater than 100 µM and the TGI [7] was greater than 100 µM. It also gave a TGI [8] greater than 100 µM and a TGI [9] greater than 100 µM.
